Test results published in US11666519B2, “Personal care compositions with cystine” (Conopco, Inc., priority 2016, dated 2023).

Experiments:
[1] = Solubility of L-cystine neutralized with fatty acids, HPLC (Example 5); settings: for Solubility ppm cystine: excess L-cystine in NaOH neutralized with the named acid, equilibrated at least 72 hours, filtered, HPLC, 3 replicas; for pH: pH of the cystine solution neutralized with the named acid
Procedure: Solubility of cystine was determined in the presence of alternative fatty acids. […] The precipitate upon neutralization was equilibrated with saturated solution for at least 72 hours. The solutions were then filtered through 0.45 micrometer PTFE or nylon (for C12) syringe filter and analysed on HPLC for cystine concentration.

[2] = cited from earlier work
[3] = Microscopy of cystine crystals recrystallized from high pH solution in hystric acid/KOH acid soap mixtures (Example 1); assay type: physicochemical
Procedure: The size of crystals can be estimated by microscopy.
The soap/acid emulsions were prepared using hystric acid (55% palmitic acid/45% stearic acid) by melting the hystric acid at 75° C. and adding this melted acid to aqueous phase consisting of KOH. […] Solubilized cystine in high pH solution was then added to the acid/soap mixture as high pH solution. Depending on the procedure of addition, differences in final formulations have been achieved.
Formula A was prepared by dissolving the cystine in hot KOH solution. Melted hystric acid was then added to this hot (75° C.) aqueous solution of cystine, mixed and let cool down to room temperature while mixing. Formula B was prepared by adding the melted hystric acid to hot KOH solution, and adding the high pH solution of cystine while mixing all ingredients at 75° C. Formula C was prepared by adding the melted hystric acid to hot KOH solution, creating thus soap, cooling the soap to 50° C. and then adding the high pH solution of cystine The resulting acid soap mixtures were observed under microscope for the formation of cystine crystals. […] Addition of cystine solution to acid soap mixture at 50-60° C. is preferred as only small particles are formed. At this temperature the majority of acid soap exists in lamellar liquid crystal or lamellar gel with vary narrow aqueous layer creating a restrictive environment for cystine crystal growth. […]

[4] = Procedure: The compositional examples are in the table 3 below. The samples in table 3 were prepared by process C in table 1.
The results in Table 3 illustrate that other ingredients can be added to the inventive compositions, as long as lamellar bilayer liquid crystal or liquid gel structure remains intact.

[5] = remark: listed apart in the source
Procedure: Additional samples with decreasing concentration of cystine were prepared to find the solubility limit for cystine in acid soap mixture. Samples in table 2 were prepared by Process A in table 1.
The samples were evaluated under microscope on the hot plate at 80° C.

| average particle size of cystine ([3]; added from high pH solution to fatty acid-soap lamellar liquid crystal or lamellar gel) | cystine crystal size ([3]; cystine added at 75 C-80° C. when in the form of oil-in-water emulsion) | solubility of cystine, minimal concentration [4] | solubility of cystine in the hystric acid acid/soap media [5] | Compound | Solubility ppm cystine [1] [ppm] | pH [1] | natural solubility of cystine [2] [ppm] |
| --- | --- | --- | --- | --- | --- | --- | --- |
| – | – | – | – | CCCCCCCCCCCC(=O)O [Dodecanoic (C12) with KOH, Dodecanoic] | 490.6 | 7.6 | – |
| – | – | – | – | CCCCCCCCCCCC(=O)O [Dodecanoic (C12) with NaOH, Dodecanoic] | 575 | 7.6 | – |
| – | – | – | – | O=C(O)/C=C\C(=O)O [Maleic] | 181.6 | 6.6 | – |
| less than 20 micrometers | greater than 20 micrometers | greater than 600 ppm | greater than 700 ppm | N[C@@H](CSSC[C@H](N)C(=O)O)C(=O)O [cystine] | – | – | 100 |
| – | – | – | – | CCCCCCCC/C=C\CCCCCCCC(=O)O [Oleic acid (C18:1), Oleic acid] | 246.8 | 7.3 | – |
